A short description of the data set: gradient 5% acetonitrile 3 min, to 50% in 2 min, to 85% in 15 min, held 3 min, 100 µL/min. Conditions: column: Zorbax Extend-C18 2.1 x 50 mm; eluents: water / acetonitrile, 0.1% formic acid. In outline:
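Retention times come from adduct peaks that were picked computationally and then checked by hand. The standards, pure and pooled in mixtures of ~100 molecules, were run on a Zorbax Extend-C18 column (2.1 × 50 mm, 1.8 μm) at 100 μL/min with water and acetonitrile, each with 0.1% formic acid. Detection was by quadrupole time-of-flight mass spectrometry in positive and negative ionization mode, with a dead volume of 40 μL and a dwell volume of 900 μL.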
Compound `Cn1c(N2CCCC(C(=O)NCC3CCN(Cc4cccc(F)c4)CC3)C2)cc(=O)n(C)c1=O` (centres undefined) registered an RP-LC retention time of 575 s.
For the compound `CNC(=O)c1cc(Cc2ccc3nc(Nc4cccc(C(F)(F)F)c4)[nH]c3c2)ccn1`, the RP-LC retention time came to 680 s.
For `Cc1cc(OCC(=O)Nc2c(C)cccc2C)nc(N2CCN(c3ccccc3)CC2)n1`, the RP-LC retention time was determined as 861 s.
The same measure for `CCc1ccc(NC(=O)c2cn(CC)nc2S(=O)(=O)N2CCSCC2)cc1`: 1100 s; for `CCOc1ccc(C(=O)N2CCN(c3cc(CC)n4cnnc4n3)CC2)cc1`: 742 s; for `Cc1cc2c(=O)n(CC(=O)Nc3cc(F)ccc3F)ccc2s1`: 817 s.
Regarding `O=c1nc(SCc2csc(-c3ccccc3)n2)c2c(n1CCCO)CCC2`, the RP-LC retention time was found to be 736 s.
`c1ccc(N2CCN(Cc3csc4c3CCCC4)CC2)nc1`: the RP-LC retention time is 605 s.
Under `Cc1cc(C)c(C)c(S(=O)(=O)NC2CCN(c3ccc(=O)n(CC4CC4)n3)CC2)c1C` stands 1040 s; under `CCOc1cc(-c2noc(-c3nnn4c3COC(c3ccc(Cl)cc3)C4)n2)ccc1OC` (centres undefined), 1190 s.
For `COC(=O)c1cncc(C)c1`, the RP-LC retention time is 662 s.
The same measure for `O=C(NC1CCCC1)c1c2c(nc3ccc(F)cc13)CCC2`: 750 s; for `COc1c(C(=O)N2CCN(c3ccccc3)CC2)sc2cccc(F)c12`: 1090 s; for `CCc1nc2cc(-c3noc(Cc4cccc(Cl)c4)n3)ccc2o1`: 1170 s.
Under `CCc1nc(-c2csc(S(=O)(=O)N3CCCC(C(=O)NC4CCC(C)CC4)C3)c2)no1` (centres undefined) stands 1100 s.
`Cc1ccc(-n2nc(N3CCCN(S(=O)(=O)c4ccc(Cl)cc4)CC3)ccc2=O)cc1` had an RP-LC retention time of 935 s.
The same measure for `COc1ccc(NC(=O)N2CCc3nc[nH]c3C2)cc1Cl`: 580 s; for `Cc1nc2c(sc3nc(-c4ccccc4)ccc32)c(=O)n1CC(=O)Nc1cccc(C(C)C)c1`: 1210 s.
The same measure for `COc1ccccc1-c1noc(Cn2ccn3nc(-c4ccc(Cl)cc4)cc3c2=O)n1`: 1040 s.
Under `CC(C)CN1CCn2cc(S(=O)(=O)NCc3ccc(F)cc3Cl)cc2C1=O` stands 838 s; under `Cc1ccc(S(=O)(=O)N2CCC(CCNC(=O)NCCC(C)C)CC2)cc1`, 715 s; under `CCn1cc(CN2CCC(C(=O)NC3CCCCCC3)CC2)c2cc(Cl)ccc21`, 777 s.
`COCCNc1nc(-c2ccc(OC)cc2)nc2ccccc12` had an RP-LC retention time of 644 s.
In turn, `CC(C)CN(CC(=O)N(Cc1ccco1)CC1CCCO1)C(=O)c1ccc(F)cc1` (centres undefined) displayed an RP-LC retention time of 990 s.
`CCOC(=O)c1c(C)oc2nc(C)nc(NCCc3ccc(Cl)cc3)c12` gave an RP-LC retention time of 1380 s.
Compound `COc1ccc(NS(=O)(=O)c2cc3c(s2)CCN(C(=O)C2CCC2)C3)cc1Cl` displayed an RP-LC retention time of 893 s.
The same measure for `CCc1ccc(S(=O)(=O)NCCc2csc3nc(-c4cccc(F)c4)nn23)s1`: 994 s.
As for `CC(C)CN1N=C(C(=O)N2CCOCC2)S(=O)(=O)c2ccc(Cl)cc21`, the RP-LC retention time was determined as 813 s.
With `CCOc1ccc(N(CC)C(=O)c2nc(C)n(C3CCN(S(C)(=O)=O)CC3)c2C)cc1`, the RP-LC retention time was 640 s.
Compound `CCCCCC[C@H]1C(=O)O[C@H](C)[C@H](NC(=O)c2cccc(NC=O)c2O)C(=O)O[C@@H](C)[C@@H]1OC(=O)CC(C)C` displayed an RP-LC retention time of 1100 s.
The same measure for `COc1cccc(-c2nc(NCC3CCCO3)ncc2C(=O)O)c1` (centres undefined): 712 s; for `COc1ccc(-c2c(NC(=O)c3cccs3)n(C)c3ccccc3c2=O)cc1`: 668 s.
The same measure for `CCOC(=O)C1CCc2sc(NC(=O)Cc3noc4ccccc34)nc21` (centres undefined): 818 s; for `COc1ccccc1NS(=O)(=O)c1cc(N)ccc1N1CCCCC1`: 744 s; for `CCN(CC)CCNC(=O)c1sc(COc2ccccc2)nc1C`: 638 s.
As to `Cc1[nH]c(C(=O)Nc2ccccc2)c(C)c1S(=O)(=O)N1CCCCC1`, the RP-LC retention time worked out at 925 s.
In the case of `Cc1ccc2nc(NC(C)(C)CO)nc(-c3ccccc3)c2c1`, the RP-LC retention time is 644 s.
On to `Cc1ccc(C(=O)N2CCC3(CC2)NC(=O)c2cc(C)ccc2N3C)cc1`, for which the RP-LC retention time stood at 805 s.
The same measure for `O=C(Nc1c(-c2ccccc2)nc2ccccn12)c1ccc([N+](=O)[O-])cc1`: 654 s; for `CCc1cc(=O)n(CC(=O)Nc2ccc(C(C)C)cc2)c(N2CCOCC2)n1`: 895 s.
Under `CCn1cnc2ccc(-c3noc(-c4ccccc4OC)n3)cc21` stands 742 s; under `Cc1nc2cc(-c3noc(-c4cncc(Br)c4)n3)ccc2o1`, 1060 s; under `O=C(Cc1ccc(Cl)cc1)N1CC(n2cnnc2C2CC2)C1`, 649 s.
Under `CCCNC(=O)C1CCCN(c2ccc(SCC(=O)Nc3ccc(C)cc3Cl)nn2)C1` (centres undefined) stands 748 s.
Consider `COc1ccc(S(=O)(=O)CCc2nc(-c3cccc(-c4ccnn4C)c3)no2)cc1`, for which the RP-LC retention time came to 866 s.
`CCOC(=O)c1[nH]c2ccccc2c1NC(=O)c1ccc(N2C(=O)CCC2=O)cc1` returned an RP-LC retention time of 699 s.
The same measure for `CCOc1ccccc1CNC(=O)C1CCN(S(=O)(=O)c2ccc3c(c2)NC(=O)CO3)CC1`: 757 s; for `O=C(CCc1nnc2ccc(N3CCC4(CC3)OCCO4)nn12)N1CCN(c2ccccn2)CC1`: 581 s.
In turn, `COCCc1noc(C2Cc3ccccc3N2C(=O)Nc2cc(C)cc(C)c2)n1` (centres undefined) came in with an RP-LC retention time of 968 s.
In turn, `O=C(NCCc1noc(C2CC2)n1)c1ccc(Cl)s1` gave an RP-LC retention time of 795 s.
For the compound `Nc1nc(SCC(=O)Nc2cccc(-c3nc4ccccc4s3)c2)n[nH]1`, the RP-LC retention time turned out to be 667 s.
The same measure for `O=C(Cn1cnc2nc3c(cc2c1=O)CCCC3)N1CCN(c2cccc(C(F)(F)F)c2)CC1`: 881 s; for `Cc1ccc(-c2nc3cnccn3c2NCCC(=O)N(C)C)cc1`: 622 s.
In the case of `CCn1cc(CN2CCC(N3C(=O)C4(CCCCC4)C3c3ccccc3)CC2)cn1` (centres undefined), the RP-LC retention time is 681 s.
On to `CCc1cccc(NC(=O)N2CCc3cn(CC)c4cccc(c34)C2)c1`, for which the RP-LC retention time is 1050 s.
`CCS(=O)(=O)N1CC(=O)N(c2ccc(C)cc2C)C(C)(C(=O)NCc2ccc(F)cc2)C1` (centres undefined): the RP-LC retention time amounted to 857 s.
The same measure for `Cc1ccc(CN2C[C@@H]3C(=O)N(CCc4ccccc4)C(=O)[C@@H]3C2)o1`: 719 s.
The same measure for `Cc1ccccc1OCC(=O)N1CCN(c2cc(C)n3c(C)nnc3n2)CC1`: 630 s.
Under `CCOc1ccc(NC(=O)Cn2c(=O)n(-c3ccccc3)c(=O)c3sc(SCC)nc32)cc1` stands 981 s; under `COCCc1noc(C2CN(C(=O)c3cnc(C)cn3)C2)n1`, 636 s.
With `COc1ccc(OC)c(C(O)CN2CCN(c3ccccc3F)CC2)c1` (centres undefined), the RP-LC retention time worked out at 677 s.
Under `CCCN1C(=O)COc2ccc(-c3csc(NC(=O)C4CCCO4)n3)cc21` (centres undefined) stands 896 s; under `Cc1ccc(-n2nc3c(=O)n(CCCC(=O)N4CCC(C(N)=O)CC4)nc(C)c3c2C)cc1`, 648 s; under `Cc1nccn1Cc1nc(-c2ccc(F)c(Br)c2)no1`, 668 s.
In the case of `CCN(CC)Cc1cc2[nH]c3c4ccc(Cl)cc4ncc3c2cc1OC`, the RP-LC retention time was 747 s.
Under `Cc1cc(C)n(-c2ccnc(N3CCC(C(=O)NCCN4CCCCC4)CC3)n2)n1` stands 601 s.
Under `CCc1cc(C2CCCN2C(=O)Nc2ccc(C(=O)OC)cc2)on1` (centres undefined) stands 801 s; under `CCOC(=O)c1[nH]c(C)c(C(=O)C(C)N(CCC(C)C)C(=O)c2ccc(C)cc2)c1C` (centres undefined), 1110 s.
Under `CCN1C(=O)C(C)(C(=O)Nc2ccccc2C)Oc2cccnc21` (centres undefined) stands 876 s; under `CCN1C(=O)COc2ccc(-c3csc(NC(=O)c4ccc(F)cc4)n3)cc21`, 989 s; under `O=C([C@@H]1C[C@H](F)CN1C(=O)Nc1ccccc1Cl)N1CCCCC1`, 732 s.
`COc1cccc(Nc2c(-c3ccccc3)nc3cnccn23)c1`: the RP-LC retention time was determined as 828 s.
`Cc1nc(-c2ccc3c(c2)CCN3C(=O)Cc2cccs2)cs1` yielded an RP-LC retention time of 965 s.
Under `COCCNC(=O)c1cc2c(n(-c3ccc(F)cc3)c1=O)CCCC2=O` stands 701 s; under `CCc1ccc(S(=O)(=O)c2cnc(N3CCN(c4cccc(C)c4)CC3)nc2N)cc1`, 1220 s.
Under `COc1nc2ccccc2nc1N1CCCC(C(=O)N2CCN(c3ccccc3Cl)CC2)C1` (centres undefined) stands 1360 s.
Compound `Cc1cccc(NC(=O)Cn2c(C(C)C)nc3c(c2=O)CCN(Cc2ccccc2)C3)c1` yielded an RP-LC retention time of 728 s.
Under `COc1ccc(-c2nnc(-c3ccccc3Cl)o2)cc1S(=O)(=O)N1CCCCC1` stands 1060 s.
On to `O=C(Nc1cccc(Cl)c1F)C1CC(=O)N(c2ccc3c(c2)CCN3C(=O)C2CC2)C1` (centres undefined), for which the RP-LC retention time was determined as 831 s.

For the origin of these results see the METLIN SMRT retention time set (Domingo-Almenara et al. 2019).
